This is an account of results in PubChem BioAssay (NCI).

SMILES strings stand for the structures.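 Compound exposure: 48 hours, 5 concentrations, 96-well plates. The concentration for full growth arrest is given as TGI.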

Among the test systems are NCI-H522 lung; NCI/ADR-RES ovarian; SF-268 CNS; SK-MEL-5 melanoma; HCC-2998 colon; SF-539 CNS; OVCAR-4 ovarian; SK-MEL-2 melanoma; SF-295 CNS; HCT-15 colon; SW-620 colon; DLD-1 colon; EKVX NSCLC; MALME-3M melanoma; OVCAR-8 ovarian; SNB-78 CNS; LXFL 529 NSCLC; M14 melanoma; BT-549 breast; T-47D breast.
Common to all, as to test: NCI anticancer screen, dose series, 48 h

On to `C=CCc1cccc(/C=N\N=C(/N)NO)c1O`, for which the TGI in the test with NCI-H522 lung was 10.6 µM; in the test on NCI/ADR-RES ovarian it was greater than 29.3 µM; with SF-268 CNS, greater than 100 µM; with SK-MEL-5 melanoma, 20.7 µM; in the test with HCC-2998 colon, 33.1 µM; in the test on SF-539 CNS, 6.81 µM. Further, the TGI in the test with OVCAR-4 ovarian is 38.3 µM; in the test with SK-MEL-2 melanoma it was greater than 54.4 µM; in the test with SF-295 CNS, 7.09 µM; in the test with HCT-15 colon, greater than 100 µM; with SW-620 colon it was greater than 100 µM; with DLD-1 colon it was greater than 100 µM. For the same compound, the TGI with EKVX NSCLC is 17.7 µM; in the test on MALME-3M melanoma, 70.9 µM; in the test with OVCAR-8 ovarian it was 52.6 µM; in the test with SNB-78 CNS, greater than 88.1 µM.

On to `N#CCCN(CCC#N)c1ccc(/C=C2\N=C(c3cc([N+](=O)[O-])ccc3Cl)N(NC(=O)CC(=O)Nc3ccccc3Cl)C2=O)cc1`, for which the TGI with NCI-H522 lung, in the test on SF-268 CNS, with SK-MEL-5 melanoma, in the test with HCC-2998 colon, with LXFL 529 NSCLC and with M14 melanoma was greater than 100 µM each time. Further, the TGI in the test on SF-539 CNS, with OVCAR-4 ovarian, with SK-MEL-2 melanoma, in the test on SF-295 CNS, with HCT-15 colon and with SW-620 colon was greater than 100 µM throughout. The TGI in the test with DLD-1 colon, in the test on EKVX NSCLC, in the test on MALME-3M melanoma, in the test with OVCAR-8 ovarian and in the test on SNB-78 CNS was greater than 100 µM each time.

Take `O=c1nc2sc3ccc4ccccc4c3n2[nH]c1=O`: the TGI in the test on NCI-H522 lung, in the test on SF-268 CNS, in the test with SK-MEL-5 melanoma, with HCC-2998 colon, in the test on LXFL 529 NSCLC and in the test with SF-539 CNS was greater than 100 µM in each case. The TGI in the test on OVCAR-4 ovarian was 81.2 µM; in the test with SF-295 CNS, greater than 100 µM; in the test on SW-620 colon it was greater than 100 µM; with DLD-1 colon, greater than 100 µM; in the test with EKVX NSCLC, greater than 100 µM; in the test on OVCAR-8 ovarian, greater than 100 µM. In the test on SNB-78 CNS, this compound came in with a TGI greater than 100 µM.

As for `CCCOC1OC(CS(=O)(=O)O)C(O)C(O)C1O` (stereo not given), the TGI in the test with NCI/ADR-RES ovarian, in the test on SK-MEL-5 melanoma, with HCC-2998 colon, in the test with BT-549 breast, in the test on M14 melanoma and with T-47D breast was greater than 100 µM throughout. Besides, the TGI in the test with OVCAR-4 ovarian, in the test on SK-MEL-2 melanoma, in the test with SF-295 CNS, in the test with HCT-15 colon, with SW-620 colon and with MALME-3M melanoma was greater than 100 µM each time. Further, the TGI with OVCAR-8 ovarian was greater than 100 µM.

With `CCCCCCCCCCCCCCCC(=O)OC1C(O)C(CO)OC(OC)C1NC(=O)N(CCCl)N=O` (stereo not given), the TGI with NCI-H522 lung turned out to be 23.8 µM; in the test on SF-268 CNS, 15.5 µM; with SK-MEL-5 melanoma, 30.2 µM; in the test on LXFL 529 NSCLC, 25.1 µM; in the test with M14 melanoma it was 36.8 µM; in the test on SF-539 CNS, 6.16 µM. Also, the TGI with OVCAR-4 ovarian worked out at 36.3 µM; with SK-MEL-2 melanoma, 44.3 µM; in the test on SF-295 CNS, 24 µM; with HCT-15 colon, 54.8 µM; in the test on SW-620 colon it was 26.1 µM; in the test with DLD-1 colon it was 31.5 µM. For the same compound, the TGI with EKVX NSCLC stood at 34.7 µM; in the test on OVCAR-8 ovarian it was 38.1 µM; in the test on SNB-78 CNS it was 40.2 µM.

For the compound `CCOC(=O)NC(Nc1ccc(Cl)cn1)(C(F)(F)F)C(F)(F)F`, the TGI in the test on NCI-H522 lung, in the test with SF-268 CNS, in the test on HCC-2998 colon, with BT-549 breast, in the test with M14 melanoma and with T-47D breast was greater than 100 µM each time. Also, the TGI with SF-539 CNS, in the test with SK-MEL-2 melanoma, in the test on HCT-15 colon, with EKVX NSCLC and in the test on MALME-3M melanoma was greater than 100 µM in each case.
